The target in one assay is G9a (Homo sapiens, UniProt Q96KQ7). As to the kind of experiment: Histone methyltransferase (HMT) assay in vitro. It counts as biochemical. On the procedure:
(§1) For histone methyltranferase (HMT), DNA methyltransferase (DNMT) and Histone acetyltransferase (HAT) assays in vitro, human recombinant HMT, DNMT and HAT proteins were mixed with substrates in the reaction buffer (50 mM Tris-HCl (pH 8.5), 5 mM MgCl2, 50 mM NaCl, 1 mM DTT, 1 mM PMSF, 1% DMSO), including histone H3, histone H4, nucleosomes, or core histone. Racemic ETP69, S enantiomer or DMSO as a vehicle control was preincubated in the mixture. Next, for HMTs and DNMT assays, […] of ^3H-SAM was added to the mixture for the reaction initiation and conversion of ^3H-SAM+histone L-lysine to SAH+histone N^6-[methyl-^3H]-L-lysine was monitored with miniatured radioligand-filter binding platform. For p300 HAT assays, the conversion of acetyl-^3H-acetyl coenzyme A to coenzyme A was monitored. The reactions were carried out at 30° C. IC50 values were determined using Excel and GraphPad Prism software.

The target of another assay is SUV39H1 (Homo sapiens, UniProt O43463). The assay can be described thus: Histone methyltransferase (HMT) assay in vitro. It counts as biochemical. On the procedure: as §1
SUV39H1, sequence (O43463 whole entry): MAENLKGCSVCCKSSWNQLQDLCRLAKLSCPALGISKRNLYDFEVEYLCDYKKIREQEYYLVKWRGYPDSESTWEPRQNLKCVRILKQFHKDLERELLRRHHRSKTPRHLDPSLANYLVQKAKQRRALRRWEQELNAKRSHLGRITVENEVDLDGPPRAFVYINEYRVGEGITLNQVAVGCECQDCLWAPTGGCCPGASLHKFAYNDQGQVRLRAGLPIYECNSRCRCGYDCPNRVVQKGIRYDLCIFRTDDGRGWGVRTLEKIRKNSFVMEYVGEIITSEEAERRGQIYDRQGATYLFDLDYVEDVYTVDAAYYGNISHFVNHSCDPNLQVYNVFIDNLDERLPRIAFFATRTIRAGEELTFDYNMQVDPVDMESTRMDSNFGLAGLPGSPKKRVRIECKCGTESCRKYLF
Assay [1] has as its system transferases (HMT, HAT, DNMT). The assay can be described thus: Screen against a number of transferases. It counts as biochemical, human. On the procedure: as §1
Assay [2] relates to Panc1 pancreatic cancer cells. As to the kind of experiment: Senescence assay (senescence-associated beta-galactosidase activity). Conditions: 5 days, compared to DMSO. It counts as cell-based. On the procedure: Senescence Assay: Panc1 cells were seeded at a density of 3×10^4 cells per well in a 24-well plate. The cells were then treated with 100 nM ETP69 or 0.3% DMSO (vehicle control). Panc-1 and SU.86.86 cells expressing SUV39H1 shRNA or a non-targeting (NT) control shRNA were also seeded in 24-well plates at a density of 3×10^4 cells/well and 5×10^4 cells/well, respectively. After 5 days, cells were washed with PBS, fixed with 3% formaldehyde/PBS, and stained over night at 37° C. with a freshly prepared staining solution (1 mg/ml 5-bromo-4-chloro-3-indolyl b-D-galactoside in 40 mM citric acid/sodium phosphate, pH 6.0, 5 mM potassium ferrocyanide, 5 mM potassium ferricyanide, 150 mM NaCl, 2 mM MgCl2). The blue stain indicates senescence-associated β-galactosidase activity. Photographs were taken with a 100× or a 20× objective under brightfield illumination using an INFINITY2 digital CCD camera (Lumenera, Canada) mounted on a Nikon Eclipse TS100 inverted microscope.

“Also recorded” adds a separate entry of the source.

G9a, sequence (Q96KQ7 whole entry): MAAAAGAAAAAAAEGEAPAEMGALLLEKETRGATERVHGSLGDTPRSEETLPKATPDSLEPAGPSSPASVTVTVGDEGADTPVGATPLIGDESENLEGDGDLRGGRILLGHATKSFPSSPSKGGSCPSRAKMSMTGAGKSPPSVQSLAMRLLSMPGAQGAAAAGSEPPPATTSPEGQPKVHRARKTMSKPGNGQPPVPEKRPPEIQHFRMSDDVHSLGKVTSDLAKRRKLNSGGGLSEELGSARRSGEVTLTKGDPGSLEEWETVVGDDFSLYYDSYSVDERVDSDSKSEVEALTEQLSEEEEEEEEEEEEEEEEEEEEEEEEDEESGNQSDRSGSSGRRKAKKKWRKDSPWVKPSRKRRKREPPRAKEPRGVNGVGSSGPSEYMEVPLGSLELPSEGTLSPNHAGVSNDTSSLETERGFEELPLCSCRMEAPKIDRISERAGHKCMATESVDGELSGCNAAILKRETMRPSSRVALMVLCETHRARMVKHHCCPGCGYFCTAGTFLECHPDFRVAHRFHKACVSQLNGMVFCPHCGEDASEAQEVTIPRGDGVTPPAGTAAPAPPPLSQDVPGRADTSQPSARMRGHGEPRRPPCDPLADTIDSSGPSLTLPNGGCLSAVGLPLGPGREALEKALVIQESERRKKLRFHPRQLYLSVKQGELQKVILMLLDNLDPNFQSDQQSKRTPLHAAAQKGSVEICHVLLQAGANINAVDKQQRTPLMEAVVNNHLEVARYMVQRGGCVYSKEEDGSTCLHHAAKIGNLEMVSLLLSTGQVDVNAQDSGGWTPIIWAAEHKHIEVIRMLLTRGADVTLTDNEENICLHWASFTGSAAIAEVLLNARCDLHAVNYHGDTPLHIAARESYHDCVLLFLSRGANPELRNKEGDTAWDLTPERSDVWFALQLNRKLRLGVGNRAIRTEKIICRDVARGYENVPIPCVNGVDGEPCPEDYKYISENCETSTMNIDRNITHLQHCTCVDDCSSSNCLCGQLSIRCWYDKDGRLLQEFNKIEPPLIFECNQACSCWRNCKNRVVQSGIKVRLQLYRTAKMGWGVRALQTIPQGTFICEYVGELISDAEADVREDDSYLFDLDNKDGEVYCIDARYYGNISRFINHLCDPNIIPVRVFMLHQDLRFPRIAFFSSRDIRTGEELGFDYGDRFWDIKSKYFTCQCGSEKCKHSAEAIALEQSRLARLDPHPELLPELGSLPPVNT

On to `CN1C(=O)[C@@]23C[C@](C)(C#N)[C@H](c4ccc5c(c4)OCO5)N2C(=O)[C@]1(C)SS3` (racemic) [ETP69, Rac-(3S,6S,7S,8aS)-6-(Benzo[d][1,3]dioxol-5-yl)-2,3,7-trimethyl-1,4-dioxohexahydro-6H-3,8a-epidithiopyrrolo[1,2-a]pyrazine-7-carbonitrile], for which the “inhibition of HMT G9a” value at G9a was “selectively inhibits; also recorded: specific inhibition”. Also, the “inhibition of HMT SUV39H1” value at SUV39H1 is recorded as “selectively inhibits; also recorded: specific inhibition”. Besides, in assay [1], the “potency against several transferases compared with chaetocin” value is “about ten times more potency”; the “selectivity for histone methyltransferases (SUV39H1; G9a) over histone acetylases (p300) and DNA methyl transferases (DNMT1)” value is listed as “selective”. Also, the senescence-associated beta-galactosidase activity entry in assay [2] is recorded as “increased senescence-associated beta-galactosidase activity”.
